Values joined by “and” are separate entries in the source; they are usually repeats but may differ in a detail not shown here. Equal values may be shown once.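 Step 1: Grow cells in 96-well plates. Step 2: Expose to compound for 48 hours at 5 concentrations. Step 3: Interpolate endpoints linearly; if unreached, use highest concentration. Here, GI50 denotes the concentration required for 50% inhibition of growth. The concentration for full growth arrest is given as TGI.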
Assays:
Assay in all cases: NCI-60 cell line screen, 48 h
[1] = test system: TK-10 renal
[2] = test system: SW-620 colon
[3] = test system: UACC-62 melanoma
[4] = test system: CAKI-1 renal
[5] = test system: NCI-H522 lung
[6] = test system: A549 NSCLC
[7] = test system: RXF 393 renal
[8] = test system: 786-0 renal
[9] = test system: SK-MEL-2 melanoma
[10] = test system: HCT-15 colon

C[C@@H]1COCCN1c1cc(-c2ccnn2C)c2ccnc(-c3ccn[nH]3)c2n1
GI50 [1]: 0.0715 µM and 0.313 µM | TGI [1]: 1.57 µM and 7 µM | GI50 [2]: 0.259 µM and 0.603 µM | TGI [2]: > 100 µM | GI50 [3]: 0.125 µM and 0.163 µM | TGI [3]: 0.876 µM and 1.3 µM | GI50 [4]: 0.125 µM and 0.223 µM | TGI [4]: 0.9 µM and 1.8 µM | GI50 [5]: 0.172 µM and 0.528 µM | GI50 [6]: 0.0623 µM and 0.19 µM | GI50 [7]: 0.0236 µM and 0.0851 µM | TGI [7]: 0.0776 µM and 0.497 µM | GI50 [8]: 0.0406 µM and 0.079 µM | TGI [8]: 0.483 µM | GI50 [9]: 0.064 µM and 0.161 µM | TGI [9]: 0.734 µM and 1.85 µM | GI50 [10]: 0.0344 µM and 0.0968 µM | TGI [10]: > 100 µM

C[C@H]1c2ccccc2CN1CCCOc1cc2c(cc1OCC1CC1)C1(CCCC1)C(N)=N2
GI50 [1]: 2.07 µM | TGI [1]: 8.26 µM | GI50 [2]: 0.977 µM | TGI [2]: 2.31 µM | GI50 [3]: 0.925 µM | TGI [3]: 1.93 µM | GI50 [4]: 1.79 µM | TGI [4]: 7.65 µM | GI50 [5]: 1.66 µM | TGI [5]: 6.62 µM | GI50 [6]: 1.94 µM | TGI [6]: 7.61 µM | GI50 [7]: 1.08 µM | TGI [7]: 3.82 µM | GI50 [8]: 2.06 µM | TGI [8]: 8.2 µM | GI50 [9]: 1.87 µM | TGI [9]: 6.69 µM | GI50 [10]: 1.46 µM | TGI [10]: 5.1 µM

O=C1CCC(N2C(=O)c3cccc(NCCCC4CCN(CCNC(=O)c5cc6c(o5)C(=O)c5ccccc5C6=O)CC4)c3C2=O)C(=O)N1 (stereo not drawn)
GI50 [1]: 2.25 µM | TGI [1]: 4.4 µM | GI50 [2]: 0.45 µM | TGI [2]: 1.86 µM | GI50 [3]: 0.304 µM | TGI [3]: 0.98 µM | GI50 [4]: 2.17 µM | TGI [4]: 9.13 µM | GI50 [5]: 1.5 µM | TGI [5]: 3.27 µM | GI50 [6]: 0.189 µM | TGI [6]: 0.471 µM | GI50 [7]: 1.03 µM | TGI [7]: 3.08 µM | GI50 [8]: 1.44 µM | TGI [8]: 3.17 µM | GI50 [9]: 1.27 µM | TGI [9]: 3.6 µM | GI50 [10]: 0.825 µM | TGI [10]: 2.41 µM

CN(c1ccc(C#N)c(Cl)c1)C1CCC(NC(=O)c2ccc(N3CCN(C4CN(c5ccc6c(c5)C(=O)N(C5CCC(=O)NC5=O)C6=O)C4)CC3)cc2)CC1 (stereo not drawn)
GI50 [1]: > 100 µM | TGI [1]: > 100 µM | GI50 [2]: > 100 µM | TGI [2]: > 100 µM | GI50 [3]: > 100 µM | TGI [3]: > 100 µM | GI50 [4]: > 100 µM | TGI [4]: > 100 µM | GI50 [5]: > 100 µM | TGI [5]: > 100 µM | GI50 [6]: > 100 µM | TGI [6]: > 100 µM | GI50 [7]: > 100 µM | TGI [7]: > 100 µM | GI50 [8]: > 100 µM | TGI [8]: > 100 µM | GI50 [9]: > 100 µM | TGI [9]: > 100 µM | GI50 [10]: > 100 µM | TGI [10]: > 100 µM

CCN(CC)C(=S)SSC(=S)N(CC)CC
GI50 [1]: 21.9 µM and 34.2 µM | TGI [1]: 43.4 µM and 99.7 µM | GI50 [2]: 16.1 µM and 17 µM | TGI [2]: 30.4 µM and 32.6 µM | GI50 [3]: 15.2 µM and 18.1 µM | TGI [3]: 30.4 µM and 44.5 µM | GI50 [4]: 12.6 µM and 20.8 µM | TGI [4]: 26.3 µM and 77.9 µM | GI50 [5]: 11.6 µM and 18.3 µM | TGI [5]: 27.9 µM and 38.4 µM | GI50 [6]: 25 µM and 33 µM | TGI [6]: > 71.9 µM and 146 µM | GI50 [7]: 15.8 µM and 17.3 µM | TGI [7]: 32.4 µM and 32.9 µM | GI50 [8]: 24.1 µM and 18.6 µM | TGI [8]: > 56.2 µM and 39.7 µM | GI50 [9]: 26.3 µM and 82.2 µM | TGI [9]: 71.1 µM and 297 µM | GI50 [10]: 20.1 µM and 20.9 µM | TGI [10]: > 56.6 µM and 59.8 µM

NS(=O)(=O)c1cccc(-c2ccc3c(NC(=O)C4CC4)n[nH]c3c2)c1
GI50 [1]: > 25 µM | TGI [1]: > 25 µM | GI50 [2]: > 15.1 µM | TGI [2]: > 25 µM | GI50 [3]: 15.7 µM | TGI [3]: > 25 µM | GI50 [4]: > 25 µM | TGI [4]: > 25 µM | GI50 [5]: 5.32 µM | TGI [5]: > 19 µM | GI50 [6]: > 25 µM | TGI [6]: > 25 µM | GI50 [7]: > 15 µM | TGI [7]: > 25 µM | GI50 [8]: 24.3 µM | TGI [8]: > 25 µM | GI50 [9]: 8.78 µM | TGI [9]: 24.9 µM | GI50 [10]: > 25 µM | TGI [10]: > 25 µM

Source: PubChem BioAssay (NCI)
